Our source for the GI50 and IC50 values is patent publication US20250388605A1, “HETEROBIFUNCTIONAL COMPOUNDS AND METHODS OF TREATING DISEASE” (Halda Therapeutics OpCo, Inc., priority 2022, published 2025).

Assay [1] relates to T-Rex 293 cell line SC3 cells having increased expression of androgen receptor protein due to exposure to doxycycline. The experiment in a line: Cellular growth inhibition, T-Rex 293 SC3 cells with doxycycline (increased androgen receptor expression), CellTiter-Glo. Type of assay: cell-based. The following applies: T-Rex 293 SC3 cells with 10 ng/mL doxycycline (increased androgen receptor expression), 72 hours, CellTiter-Glo 2.0. Put shortly:
(§1)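 Doxycycline (10 ng/mL) was either included or omitted to toggle wild-type androgen receptor expression in SC3 cells, a T-Rex 293 clone, grown in stripped-serum, phenol red-free medium. After 72 hours with compound, viable cells were quantified by CellTiter-Glo 2.0.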

For assay [2], the system named is T-Rex 293 cell line SC3 cells lacking increased expression of androgen receptor protein. The experiment in a line: Cellular growth inhibition, T-Rex 293 SC3 cells without doxycycline (no increased androgen receptor expression), CellTiter-Glo. The following applies: T-Rex 293 SC3 cells not exposed to doxycycline (no increased androgen receptor expression), 72 hours. The assay is classed as cell-based. Put shortly: as §1
A general note: ATP-based viability assays read luminescence as a measure of living cells.

A further assay has as its system VCaP cells. The experiment in a line: Cellular growth inhibition assay for VCaP cells, CellTiter-Glo. Type of assay: cell-based, human. The following applies: 72 hours. An outline of the steps:
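GI50 values come from four-parameter curve fits of luminescence data normalized to a zero baseline. Compound, in medium with 0.5% DMSO, was added one day after plating and left for 72 h before CellTiter-Glo 2.0 addition.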

The subject of assay [3] is T-Rex 293 cell line SC cells having increased expression of progesterone receptor isoform B protein. In words: Cellular growth inhibition assay, T-Rex 293 SC cells exposed to doxycycline (increased progesterone receptor isoform B expression), CellTiter-Glo. The assay is classed as cell-based. As to conditions: T-Rex 293 SC cells with 10 ng/mL doxycycline (increased PR isoform B), 72 hours. On the procedure: (§2) The SC cells were seeded on poly-D-lysine coated, black clear-bottom 384-well plates at 2500/well, in 25 μL Phenol Red Free Dulbecco's Modified Eagle Medium (DMEM) supplemented with 10% w/w charcoal-dextran treated fetal bovine serum (FBS) and 1% w/w pen-strep, with or without 10 ng/mL doxycycline. Pen-Strep is a commercially available mixture of penicillin G and streptomycin, which is used in mammalian cell culture media to prevent bacterial contamination. Phenol Red Free Dulbecco's Modified Eagle Medium (DMEM) supplemented with 10% w/w charcoal-dextran treated fetal bovine serum (FBS) and 1% w/w pen-strep, with or without 10 ng/mL doxycycline is herein referred to as Treatment Medium. Following seeding of cells in the plates, the plates were spun at 300×g for 30 seconds, then equilibrated to room temperature for 30 minutes, and then deposited in a humidified tissue culture incubator maintained at 37° C. with 5% CO2.
(§3) At 24 hours after seeding of the cells, dilutions of test compound were prepared in DMSO and dissolved in Treatment Medium, to achieve a final DMSO concentration of 0.5% w/w, thereby providing the Test Compound Solution. A 25 μL aliquot of the Test Compound Solution was added to cells in the well plates. An equal volume of a solution containing DMSO and Treatment Medium was used as a negative control. Following treatment of cells with Test Compound Solution or said equal volume of a solution containing DMSO and Treatment Medium, the plates were spun at 300×g for 30 seconds, and then left in an incubator for 72 hours.
(§4) At the end of the treatment duration, cell viability was quantified with CellTiter-Glo 2.0 reagent (Promega Cat #G9243). For this purpose, plates were equilibrated to room temperature for 30 minutes, and then 25 μL of CellTiter-Glo 2.0 reagent was added to cells in the plate wells. Plates were then agitated on a shaker for two minutes at 500 rpm and subsequently incubated at room temperature for 10 minutes. Following incubation, the plates were spun at 3000×g for 30 seconds, then sealed with an optical adhesive cover, and luminescence readings were measured with an EnVision Plate Reader (Perkin Elmer).
(§5) Data was normalized using zero luminescence for baseline. A four-parameter non-linear regression curve fit was applied to dose-response data in GraphPad Prism data analysis software to determine the half-maximal growth inhibitory concentration (GI50) for each test compound.

Assay [4] relates to T-Rex 293 cell line SC cells lacking increased expression of progesterone receptor isoform B protein. In words: Cellular growth inhibition assay, T-Rex 293 SC cells not exposed to doxycycline (no increased progesterone receptor isoform B expression), CellTiter-Glo. The assay is classed as cell-based. The following applies: T-Rex 293 SC cells without doxycycline (no increased PR isoform B), 72 hours. On the procedure:
as §2, §3, §4, §5

The next assay relates to T47D cells. The experiment in a line: Cellular Growth Inhibition Assay for T47D Cells (CellTiter-Glo). The assay is classed as cell-based, human. The following applies: 72 hours. An outline of the steps: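 GI50 values derive from four-parameter regression of CellTiter-Glo 2.0 luminescence, using zero luminescence as baseline. Human breast cancer T47D cells (3000/well; DMEM, 10% FBS, 0.2 units/mL insulin) were exposed for 72 h to compound dilutions at 0.5% DMSO, with dosing starting 24 h after seeding.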

Assay [5] concerns the target T1, progesterone receptor ligand binding domain (GST-tagged PR LBD) (Homo sapiens, UniProt P06401).
T1 construct: purchased Life Technologies A15905 or a15906
T1 sequence (P06401 679-913 limits assumed): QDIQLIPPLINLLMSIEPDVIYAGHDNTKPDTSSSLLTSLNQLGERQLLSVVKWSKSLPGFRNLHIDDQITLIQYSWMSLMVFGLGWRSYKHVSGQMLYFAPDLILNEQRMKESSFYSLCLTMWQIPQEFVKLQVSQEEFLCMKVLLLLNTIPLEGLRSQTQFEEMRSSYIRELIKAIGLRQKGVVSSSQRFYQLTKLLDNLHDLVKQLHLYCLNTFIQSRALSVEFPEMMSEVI
The experiment in a line: FP Assay for Binding Affinity to Progesterone Receptor (PolarScreen Progesterone Receptor Competitor Assay Kit). As to conditions: fluorescence polarization, Fluormone tracer, 2 hours at room temperature. As to the method:
Exemplary compounds were tested for ability to bind to the progesterone receptor ligand binding domain (LBD).
Compounds were tested using the PolarScreen™ Progesterone Receptor Competitor Assay Kit (Life Technologies Cat #A15905 or a15906), as per the manufacturer's instructions. Briefly, GST-tagged PR LBD, Fluormone tracer, and compound were mixed and incubated for 2 hours at room temperature in the dark. Following incubation, the plates were spun at 3000×g for 30 seconds, then sealed with an optical adhesive cover, and fluorescence polarization was measured using appropriate excitation and emission filters with an EnVision Plate Reader (Perkin Elmer). Compound concentration vs. mP value were plotted in Prism (GraphPad). A four-parameter non-linear regression curve fit was applied to dose-response data to determine the half-maximal inhibitory concentration (IC50) for each test compound.

What is called GI50 is the concentration giving 50% growth inhibition. On to `CN(CCCOc1ccc(Oc2ccc(C(C)(C)O)cc2-c2cn(C)c(=O)c3[nH]ccc23)cc1)c1ncc(C(=O)N[C@H]2C(C)(C)[C@H](Oc3ccc(C#N)c(Cl)c3)C2(C)C)cn1` [Compound I-200], for which the GI50 in assay [1] is less than 500 nM; in assay [2], 500 to 1500 nM; in the assay on VCaP cells (Homo sapiens), less than 500 nM; in assay [3] it was less than 500 nM; in assay [4] it was less than 500 nM; in the assay on T47D cells (Homo sapiens) it was 500 to 1500 nM.

Turning to `Cn1cc(-c2cc(C(C)(C)O)ccc2Oc2ccc(N3CC(CC4CN(c5ccc(C(=O)N[C@H]6C(C)(C)[C@H](Oc7ccc(C#N)c(Cl)c7)C6(C)C)nc5)C4)C3)cc2)c2cc[nH]c2c1=O` [Compound I-322], the GI50 was less than 500 nM in assay [1]; 1500 to 3000 nM in assay [2]; 500 to 1500 nM with VCaP cells; less than 500 nM in assay [3]; 1500 to 3000 nM in assay [4]; less than 500 nM with T47D cells.

Broadly, the IC50 is the concentration at which inhibition is half-maximal. Higher therefore signals a need for much substance. As to `CCS(=O)(=O)c1ccc(Oc2cccc(CCCOC3CC4(C3)CN(c3ccc(C(=O)N[C@H]5C(C)(C)[C@H](Oc6ccc(C#N)c(Cl)c6)C5(C)C)cn3)C4)c2F)c(-c2cn(C)c(=O)c3[nH]ccc23)c1` [Compound I-215], the GI50 (in assay [1]; in assay [2]; in the assay on VCaP cells (Homo sapiens); with T47D cells (Homo sapiens)) was less than 500 nM each time. In assay [5], this compound returned a half-inhibitory concentration (IC50) greater than 2500 nM.

For `CCS(=O)(=O)Nc1ccc(Oc2cccc(OCCCC3CCN(c4ncc(C(=O)N[C@H]5C(C)(C)[C@H](Oc6ccc(C#N)c(Cl)c6)C5(C)C)cn4)CC3)c2)c(-c2cn(C)c(=O)c3[nH]ccc23)c1` [Compound I-27], the GI50 in assay [1] was less than 500 nM; in assay [2], 500 to 1500 nM; in the assay with VCaP cells (Homo sapiens), less than 500 nM; in assay [3] it was less than 500 nM; in assay [4] it was greater than 3000 nM; in the assay on T47D cells (Homo sapiens), less than 500 nM.

With `Cn1cc(-c2cc(C(C)(C)O)ccc2Oc2ccc(F)c(OCCC3CC4(C3)CN(c3ncc(C(=O)N[C@H]5C(C)(C)[C@H](Oc6ccc(C#N)c(Cl)c6)C5(C)C)cn3)C4)c2F)c2cc[nH]c2c1=O` [Compound I-225], the GI50 (in assay [1]; in assay [2]; in the assay on VCaP cells; in the assay on T47D cells) was less than 500 nM throughout. Further, the IC50 in assay [5] was less than 50 nM.

Consider `Cn1cc(-c2cc(C(C)(C)O)ccc2Oc2ccc(N3CC(CC4CN(c5cnc(C(=O)N[C@H]6C(C)(C)[C@H](Oc7ccc(C#N)c(Cl)c7)C6(C)C)cn5)C4)C3)cc2)c2cc[nH]c2c1=O` [Compound I-317], for which the GI50 in assay [1] is less than 500 nM; in assay [2] it was less than 500 nM; in the assay with VCaP cells (Homo sapiens), less than 500 nM; in assay [3] it was less than 500 nM; in assay [4], 500 to 1500 nM; in the assay on T47D cells (Homo sapiens), less than 500 nM.

`Cn1cc(-c2cc(C(C)(C)O)ccc2Oc2ccc(N3CC(C4CCN(c5ncc(C(=O)N[C@H]6C(C)(C)[C@H](Oc7ccc(C#N)c(Cl)c7)C6(C)C)cn5)CC4)C3)cc2)c2cc[nH]c2c1=O` [Compound I-299]: the GI50 in assay [1] is less than 500 nM; in assay [2], greater than 3000 nM; in the assay with VCaP cells, less than 500 nM; in assay [3], less than 500 nM; in assay [4] it was 500 to 1500 nM; with T47D cells, less than 500 nM.

For the compound `CCS(=O)(=O)Nc1ccc(Oc2cccc(N3CCC(CC4CCN(c5ncc(C(=O)N[C@H]6C(C)(C)[C@H](Oc7ccc(C#N)c(Cl)c7)C6(C)C)cn5)CC4)CC3)c2)c(-c2cn(C)c(=O)c3[nH]ccc23)c1` [Compound I-36], the GI50 was less than 500 nM in assay [1]; greater than 3000 nM in assay [2]; less than 500 nM in the assay with VCaP cells (Homo sapiens); less than 500 nM in assay [3]; greater than 3000 nM in assay [4]; less than 500 nM in the assay with T47D cells (Homo sapiens).

Take `CN(CCOc1ccc(Oc2ccc(C(C)(C)O)cc2-c2cn(C)c(=O)c3[nH]ccc23)cc1)c1ncc(C(=O)N[C@H]2C(C)(C)[C@H](Oc3ccc(C#N)c(Cl)c3)C2(C)C)cn1` [Compound I-199]: the GI50 (in assay [1]; in assay [2]; in the assay with VCaP cells (Homo sapiens); in assay [3]; in assay [4]; in the assay with T47D cells (Homo sapiens)) was less than 500 nM in each case.

Regarding `CCS(=O)(=O)c1ccc(Oc2cccc(CCCOC3CC4(C3)CN(c3ncc(C(=O)N[C@H]5C(C)(C)[C@H](Oc6ccc(C#N)c(Cl)c6)C5(C)C)cn3)C4)c2F)c(-c2cn(C)c(=O)c3[nH]ccc23)c1` [Compound I-205], the GI50 (in assay [1]; in assay [2]; in the assay on VCaP cells (Homo sapiens); in assay [3]; in assay [4]; with T47D cells (Homo sapiens)) was less than 500 nM throughout.

`CCS(=O)(=O)Nc1ccc(Oc2cccc(N3CC(OC4CCN(c5ncc(C(=O)N[C@H]6C(C)(C)[C@H](Oc7ccc(C#N)c(Cl)c7)C6(C)C)cn5)CC4)C3)c2F)c(-c2cn(C)c(=O)c3[nH]ccc23)c1` [Compound I-175]: the GI50 in assay [1] was less than 500 nM; in assay [2], less than 500 nM; with VCaP cells, less than 500 nM; in assay [3], less than 500 nM; in assay [4] it was greater than 3000 nM; in the assay with T47D cells, less than 500 nM.

Consider `Cn1cc(-c2cc(C(C)(C)O)ccc2Oc2ccc(C3CN(C4CCN(c5ncc(C(=O)N[C@H]6C(C)(C)[C@H](Oc7ccc(C#N)c(Cl)c7)C6(C)C)cn5)CC4)C3)cc2)c2cc[nH]c2c1=O` [Compound I-304], for which the concentration for 50% growth inhibition (GI50) is less than 500 nM in assay [1]; less than 500 nM in assay [2]; less than 500 nM in the assay with VCaP cells; less than 500 nM in assay [3]; 500 to 1500 nM in assay [4]; less than 500 nM with T47D cells.

For the compound `CCS(=O)(=O)Nc1ccc(Oc2cccc(OC3CC4(CCN(c5ncc(C(=O)N[C@H]6C(C)(C)[C@H](Oc7ccc(C#N)c(Cl)c7)C6(C)C)cn5)CC4)C3)c2)c(-c2cn(C)c(=O)c3[nH]ccc23)c1` [Compound I-44], the GI50 in assay [1] was less than 500 nM; in assay [2] it was greater than 3000 nM; with VCaP cells (Homo sapiens), less than 500 nM; in assay [3] it was less than 500 nM; in assay [4] it was greater than 3000 nM; in the assay on T47D cells (Homo sapiens), less than 500 nM.

As for `Cn1cc(-c2cc(C(C)(C)O)ccc2Oc2ccc(N3CC(OC4CN(c5ncc(C(=O)N[C@H]6C(C)(C)[C@H](Oc7ccc(C#N)c(Cl)c7)C6(C)C)cn5)C4)C3)cc2)c2cc[nH]c2c1=O` [Compound I-303], the GI50 was less than 500 nM in assay [1]; less than 500 nM in assay [2]; less than 500 nM in the assay on VCaP cells; less than 500 nM in assay [3]; 500 to 1500 nM in assay [4]; less than 500 nM in the assay on T47D cells.
